Where two headings read alike, the source gives them in different places. One block for each compound: values may come before it.
Key:
[1] = Table 5, Gilani et al.; cited from earlier work
[2] = Particle size distribution (PSD) of formulation components; format: physicochemical; conditions: for D90 / D10 / D50: Cromolyn API (micronized), Table 2; for D10 (3-6 μm) / D50 (20-25 μm) / D90 (50-60 μm): α-Lactose (DFE Pharma Lactohale LH201), Table 3; for D50 (<5 μm) / D90 (<10 μm): Magnesium Stearate (micronized), Table 4
Source text: The methodology included particle size determination (PSD); powdered x-ray crystallization diffraction (PXRD); and gravimetric vapor sorption (GVS).

Compound: OC[C@H]1O[C@@H](O[C@H]2[C@H](O)[C@@H](O)[C@@H](O)O[C@@H]2CO)[C@H](O)[C@@H](O)[C@H]1O [Batch P325M, α-Lactose]
- D10 [1]: 6.6 ± 0.8
- D90 [1]: 74.1 ± 3.8

- D90 ([2]; listed as 15-0079): 4.2 μm
Compound: O=C(O)c1cc(=O)c2c(OCC(O)COc3cccc4oc(C(=O)O)cc(=O)c34)cccc2o1 [Lot # 15-0079, Cromolyn sodium]

- D10 (3-6 μm) ([2]; listed as 16-0127): 3 μm
- D50 (20-25 μm) ([2]; listed as 16-0127): 22 μm
- D90 (50-60 μm) ([2]; listed as 16-0127): 59 μm
Compound: OC[C@H]1O[C@@H](O[C@H]2[C@H](O)[C@@H](O)[C@@H](O)O[C@@H]2CO)[C@H](O)[C@@H](O)[C@H]1O [Lot# 16-0127, α-Lactose]

Compound: Magnesium Stearate [Lot 15-0077]
- D50 (<5 μm) ([2]; listed as 15-0077): 4.82 μm
- D90 (<10 μm) ([2]; listed as 15-0077): 9.28 μm

Compound: Magnesium Stearate [Lot 18-0038]
- D50 (<5 μm) ([2]; listed as 18-0038): 4.33 μm
- D90 (<10 μm) ([2]; listed as 18-0038): 8.04 μm

- D10 (3-6 μm) ([2]; listed as 13-0094): 3 μm
- D50 (20-25 μm) ([2]; listed as 13-0094): 21 μm
- D90 (50-60 μm) ([2]; listed as 13-0094): 54 μm
Compound: OC[C@H]1O[C@@H](O[C@H]2[C@H](O)[C@@H](O)[C@@H](O)O[C@@H]2CO)[C@H](O)[C@@H](O)[C@H]1O [Lot# 13-0094, α-Lactose]

Compound: OC[C@H]1O[C@@H](O[C@H]2[C@H](O)[C@@H](O)[C@@H](O)O[C@@H]2CO)[C@H](O)[C@@H](O)[C@H]1O [Batch P450M, α-Lactose]
- D10 [1]: 2.5 ± 0.3
- D90 [1]: 26.5 ± 0.3

- D10 (3-6 μm) ([2]; listed as 15-0066): 4 μm
- D50 (20-25 μm) ([2]; listed as 15-0066): 23 μm
- D90 (50-60 μm) ([2]; listed as 15-0066): 57 μm
Compound: OC[C@H]1O[C@@H](O[C@H]2[C@H](O)[C@@H](O)[C@@H](O)O[C@@H]2CO)[C@H](O)[C@@H](O)[C@H]1O [Lot# 15-0066, α-Lactose]

- Particle size D10 ([2]; component of Batch 1, Table 8): 0.6 μm
- Particle size D50 ([2]; component of Batch 1, Table 8): 1.8 μm
- Particle size D90 ([2]; component of Batch 1, Table 8): 3.8 μm
- Particle size D90 ([2]; component of Batch 2, Table 8): 4.2 μm
- Particle size D10 ([2]; component of Batch 3, Table 8): 0.6 μm
- Particle size D50 ([2]; component of Batch 3, Table 8): 1.8 μm
- Particle size D90 ([2]; component of Batch 3, Table 8): 3.8 μm
Compound: O=C(O)c1cc(=O)c2c(OCC(O)COc3cccc4oc(C(=O)O)cc(=O)c34)cccc2o1 [Cromolyn Sodium, Cromolyn sodium]
- D10 [1]: 0.7 ± 0.1
- D50 [1]: 1.52 ± 0.2
- D90 [1]: 3.03 ± 0.02

Compound: Magnesium Stearate [Mg St]
- Particle size D10 ([2]; component of Batch 1, Table 8): 3.3 μm
- Particle size D50 ([2]; component of Batch 1, Table 8): 8.3 μm
- Particle size D90 ([2]; component of Batch 1, Table 8): 22.6 μm
- Particle size D50 ([2]; component of Batch 2, Table 8): 4.82 μm
- Particle size D90 ([2]; component of Batch 2, Table 8): 9.28 μm
- Particle size D50 ([2]; component of Batch 3, Table 8): 4.33 μm
- Particle size D90 ([2]; component of Batch 3, Table 8): 8.04 μm

Compound: Magnesium Stearate [Lot 14-0035]
- D50 (<5 μm) ([2]; listed as 14-0035): 3.56 μm
- D90 (<10 μm) ([2]; listed as 14-0035): 6.74 μm

- Particle size D10 ([2]; component of Batch 1, Table 8): 3 μm
- Particle size D50 ([2]; component of Batch 1, Table 8): 21 μm
- Particle size D90 ([2]; component of Batch 1, Table 8): 54 μm
- Particle size D10 ([2]; component of Batch 2, Table 8): 4 μm
- Particle size D50 ([2]; component of Batch 2, Table 8): 23 μm
- Particle size D90 ([2]; component of Batch 2, Table 8): 57 μm
- Particle size D10 ([2]; component of Batch 3, Table 8): 3 μm
- Particle size D50 ([2]; component of Batch 3, Table 8): 22 μm
- Particle size D90 ([2]; component of Batch 3, Table 8): 59 μm
Compound: OC[C@H]1O[C@@H](O[C@H]2[C@H](O)[C@@H](O)[C@@H](O)O[C@@H]2CO)[C@H](O)[C@@H](O)[C@H]1O [α-Lactose]

- D10 ([2]; listed as 15-0013): 0.6 μm
- D50 ([2]; listed as 15-0013): 1.8 μm
- D90 ([2]; listed as 15-0013): 3.8 μm
Compound: O=C(O)c1cc(=O)c2c(OCC(O)COc3cccc4oc(C(=O)O)cc(=O)c34)cccc2o1 [Lot # 15-0013, Cromolyn sodium]

- D10 ([2]; listed as 13-0105): 0.5 μm
- D50 ([2]; listed as 13-0105): 1.9 μm
- D90 ([2]; listed as 13-0105): 4.6 μm
Compound: O=C(O)c1cc(=O)c2c(OCC(O)COc3cccc4oc(C(=O)O)cc(=O)c34)cccc2o1 [Lot # 13-0105, Cromolyn sodium]
